From patent publication US12605399B2, “Compositions for CFTR MRNA therapy” (TRANSLATE BIO, INC., priority 2020, dated 2026) come the findings set out here.

For the assay, the system named is male CD1 mice. The assay is described as follows: Luciferase production in the lung after intratracheal FFL mRNA-LNP. The settings on record: for potency as determined by the average radiance detected in mouse lungs: FFL mRNA-LNP, intratracheal, about 5 hours post-dose; for performance in liposomes administered through pulmonary delivery via nebulization: mouse, in vivo. Type of assay: in vivo, mouse. As for the experimental part: About 150 cationic lipids were tested. (FIG. 7). Each cationic lipid was used in preparing lipid nanoparticles encapsulating mRNA encoding firefly luciferase protein (FFL mRNA) according to methods known in the art. For example, suitable methods for mRNA encapsulation include methods described in International Publication Nos. WO2016/004318 and WO 2018/089801, which is hereby incorporated by reference in its entirety. The tested lipid nanoparticles comprised a lipid component consisting of a cationic lipid, a non-cationic lipid (DOPE), a PEG-modified lipid (DMG-PEG2K), and optionally cholesterol.
Lipid nanoparticle formulations comprising FFL mRNA were administered to male CD1 mice by a single intratracheal administration via nebulization using a Microsprayer®. At approximately 5 hours post-dose, the animals were dosed with luciferin by intraperitoneal injection and all animals were imaged using an IVIS imaging system to measure luciferase production in the lung. […] Some cationic lipids remarkably had greater than 50-fold increase in pulmonary protein expression as compared to other cationic lipids.

As for `CCCCCCCCC(O)CN(CCCCC(=O)OCCN1CC(C)N(CCOC(=O)CCCCN(CC(O)CCCCCCCC)CC(O)CCCCCCCC)CC1C)CC(O)CCCCCCCC` (stereo not shown) [HEP-E4-E10], the “potency as determined by the average radiance detected in mouse lungs” value (shortened to “potency as determined”) is on record as “particularly high potency” and the “performance in liposomes administered through pulmonary delivery via nebulization” value (“performance” below) is “performed particularly well”.

Take `CCCCC/C=C\C/C=C\CCCCCCCC(=O)OCC(COC(=O)CCCCCCC/C=C\C/C=C\CCCCC)(COC(=O)CCCCCCC/C=C\C/C=C\CCCCC)NCCS(=O)(=O)NCCN(C)C` [GL-TES-SA-DME-E18-2, 2-((2-(N-(2-(dimethylamino)ethyl)sulfamoyl)ethyl)amino)-2-((((9Z,12Z)-octadeca-9,12-dienoyl)oxy)methyl)propane-1,3-diyl (9Z,9′Z,12Z,12′Z)-bis(octadeca-9,12-dienoate)]: the “potency as determined” value is on record as “particularly high potency” and the “performance” value is reported as “performed particularly well”.

As for `CC(C)CCCC(C)C1CCC2C3CC=C4CC(OC(=O)CCc5cnc[nH]5)CCC4(C)C3CCC12C` (stereo not shown) [ICE, imidazole cholesterol ester, reference compound], the “historical radiance/expression of pulmonary-delivered FFL mRNA LNP” value (mice, nebulized FFL mRNA in LNP with this cationic lipid) was “around 10^4 p/s/cm^2sr”.

On to `CCCCCCCCC(O)CN(CCCC(=O)OCCN1CC(C)N(CCOC(=O)CCCN(CC(O)CCCCCCCC)CC(O)CCCCCCCC)CC1C)CC(O)CCCCCCCC` (stereo not shown) [HEP-E3-E10], for which the “potency as determined” value was “particularly high potency” and the “performance” value was “performed particularly well”.

As to `CCCCCCCCCCCCCCOC(=O)CC(CC(=O)OCCCCCCCCCCCCCC)(OC(=O)CCN(C)C)C(=O)OCCCCCCCCCCCCCC` [TL1-04D-DMA], the “potency as determined” value is given as “particularly high potency” and the “performance” value is given as “performed particularly well”.

Turning to `CCCCCCCCOC(=O)CC(CC(=O)OCCCCCCCC)(OC(=O)CCN(C)C)C(=O)OCCCCCCCC` [TL1-01D-DMA, trioctyl 2-((3-(dimethylamino)propanoyl)oxy)propane-1,2,3-tricarboxylate], the “potency as determined” value is “particularly high potency” and the “performance” value is listed as “performed particularly well”.

Consider `CCCCC/C=C\C/C=C\CCCCCCCC(=O)OCC(COC(=O)CCCCCCC/C=C\C/C=C\CCCCC)(COC(=O)CCCCCCC/C=C\C/C=C\CCCCC)NCCS(=O)(=O)NCCCN(C)C` [GL-TES-SA-DMP-E18-2], for which the “potency as determined” value is recorded as “particularly high potency” and the “performance” value was “performed particularly well”.
